# Experiments:
# [1] = test system: hyperoxia-exposed BPD mouse model; test: BPD mouse model: immunofluorescence (Ki67, PCNA, vWF) and TUNEL staining of lung; format: in vivo
# Excerpt: AVR-48 restored lung morphology and improved alveolar cellular physiology. After assessment of the safety profile of the AVR-48, and confirmation of the ideal dose to be used, the inventors then performed studies to evaluate the therapeutic effect on the lung in the experimental BPD mouse model, as previously described (Bhandari, Choo-Wing et al. 2008, Leary, Das et al. 2019, Das, Acharya et al 2020, Das, Curstedt et al 2020). BPD is characterized by enlarged simplified alveoli with large air sacs, thickened septum, and thin alveolar epithelium (FIG. 2A) accompanied by overall decrease in alveolar cell proliferation, decreased/dysregulated angiogenesis and increased cell death. All these features were restored after injection of 2 doses of AVR-48, IP (10 mg/kg) on days P2 and P4. […] The total inflammatory cells present in the BALF (FIG. 3A) and the total protein content (FIG. 3B)—both increase in BPD, was decreased after treatment with AVR-48. […] To assess cell specificity, the inventors focused on Type I and Type II alveolar epithelial cells (AECs), as they are most relevant to the process of alveolarization, as described in the manuscript. The inventors utilized the receptor for advanced glycation end-products (RAGE) as the preferred marker for Type I AECs and surfactant protein (SP)-C for the Type II AECs. Due to Ki67 and SP-C being raised in the same species, we used proliferating cell nuclear antigen (PCNA) expression—a well-established marker of cell proliferation because cells remain a longer time in the G1/S phase when proliferating—as a preferred marker for proliferating cells. […] There were few cells which were double positive for PCNA as well as RAGE in the RA and RA+AVR-48 groups (FIG. 4C).
# Histology, immunohistochemistry and immunofluorescence. Both the RA control and BPD mice were anesthetized (using an overdose of a cocktail of xylazine-ketamine) and lung and heart tissues were harvested after perfusion and fixed overnight in 4% paraformaldehyde. Fixed tissues were then washed in fresh PBS, dehydrated using 70% ethanol, cleared, and embedded in paraffin to be sectioned and stained with hematoxylin and eosin (H&E) for lung morphometry or immunohistochemistry/immunofluorescence as previously described (Leary, Das et al. 2019, Das, Achaiya et al. 2020, Das, Curstedt et al. 2020). Immunofluorescence staining was done for Ki67 (Abcam, 1:10) and Von Wilebrand Factor (vWF-DAKO, 1:100) on lung paraffin sections following the protocol as described earlier (Leary, Das et al. 2019) while TUNEL staining was done following the manufacturer's instructions (Roche).
# For quantification of cell proliferation and cell death, the entire lung section was divided into 3 areas, and the total number of Ki67+ve and TUNEL+ve cells nuclei were counted manually which was normalized with the total number of nuclei to give a percentage of positive cells. For vWF quantification, total number of closed vessels were counted per high power field area in one lung section. A minimum of 3 areas were chosen, and 3-7 animals were used for staining and counting.
# [2] = PK study in rat pups by SC or IV (plasma, BALF); format: in vivo
# Excerpt: Pharmacokinetic (PK) Profile of AVR-48 (compound 8). The PK studies of AVR-48 were developed and designed in-house, by high performance liquid chromatography (HPLC), in both mouse and rat pups by IV, IP and IN dosing, to check the bioavailability of the drug formulated as solution, suspension or nanoparticle encapsulation in plasma, broncho-alveolar lavage fluid (BALF) and lung tissues.
# A sustained level of AVR-48 was observed only where T1/2 was not estimable. For the IV dosed animals only, maximum concentration was followed by decline on PK Day 1 but was followed by sustained level of AVR-48 on PK Day 3. T1/2 was also not estimable. […] In summary, exposure to AVR-48 increased for 100 mg/kg/day for both routes after 3 days of twice daily administration but not for the 150 mg/kg/day groups.
# Animals. C57BL/6J mice were purchased from The Jackson Laboratory (Bar Harbor, ME, USA) and were maintained in a breeding colony at Drexel University, Philadelphia, PA, USA. Animal procedures were performed in accordance with the NIH Guide for the Care and Use of Laboratory Animals and were approved by the Institutional Animal Care and Use Committee (IACUC) of Drexel University Philadelphia, PA (Protocol No. 20706). Neonatal rat pups born from female pregnant Sprague Dawley Crl:CD (SD) rats (Charles River Laboratories, St-Constant, QC, Canada) were used for the toxicology and PK studies to evaluate safety, determine the maximum tolerated dose (MTD) and the PK profile of AVR-48. A minimum 6-day acclimation period was allowed between receipt of the animals and the start of treatment to accustom the rats to the laboratory environment. All rat studies were approved by the IACUC of ITR Laboratories, Canada (Protocol No. 74691).
# Formulation of AVR-48 for efficacy and toxicokinetic studies. For the mouse dose response efficacy studies, AVR-48 was reconstituted in 0.9% sterile normal saline to give a final dose concentration of […] as a colorless solution, and injected IP (30 μl) on P2 and P4. The PLGA encapsulated AVR-48 or the GFP-tagged analog was resuspended in deionized sterile water to make a nanosuspension with final dose concentration of 0.025, 0.05 and 0.11 mg/kg/drop. The surfactant Curosurf® (Cheisi Parma, Italy), available commercially, was delivered IN at a volume of 3 μl per nostril, on P2 and P4. For the toxicokinetic study of AVR-48 in rat pups, a formulation of 10% DMSO, 20% tetraglycol, 20% PEG 400, and 50% sterile water was made fresh before administration (Shah, Das et al. 2021).
smiles,measurement,setting,value
CC(=O)N[C@@H]1C(Oc2ccc([N+](=O)[O-])cc2)OC(CO)C(O)C1O (stereo partly shown) [AVR-48],cell proliferation (Ki67 immunostaining),"[1]; 10 mg/kg IP P2 and P4, vs BPD",revival in cell proliferation
same,RAGE+ve cells co-localization with PCNA (Type I AECs),[1]; BPD or BPD+AVR-48 groups,did not co-localize with PCNA
same,cells co-localizing SP-C and PCNA (proliferating Type II AECs),"[1]; BPD vs RA, RA+AVR-48, BPD+AVR-48","less in the BPD group as compared to RA, RA+AVR-48 and BPD+AVR-48 groups"
same,blood vessels (vWF immunostaining),[1]; vs BPD group,showed improvement
same,"cell death (TUNEL staining, cleaved caspase 3 immunoblotting)",[1]; vs BPD group,decrease in cell death
same,accumulation ratio using AUC(0-t),"[2]; BALF, IV dosed animals",2.04
same,decline of plasma concentration,[2]; IV dosed animals,declined in a bi-exponential fashion
same,Tmax (maximum plasma concentration),"[2]; Sprague Dawley Crl:CD, rat, in vivo, 150 mg/kg/day",60 min
same,Tmax,"[2]; Sprague Dawley Crl:CD, rat, in vivo, 150 mg/kg/day, Tmax (maximum plasma concentration)",30 min
same,Tmax,"[2]; Sprague Dawley Crl:CD, rat, in vivo, Tmax",15 to 60 min
same,AUC(0-t),"[2]; Sprague Dawley Crl:CD, rat, in vivo, iv, AUC(0-t)",4200 ng·h/mL
same,Cmax,"[2]; Sprague Dawley Crl:CD, rat, in vivo, maximum concentration (Cmax)",891 to 1070 ng/mL
same,accumulation in plasma,[2]; after 3 days of twice daily administration,no accumulation of the drug
